The values below come from patent publication US20100292471A1, “PEPTIDE NUCLEIC ACID OLIGOMERS […] BASES,PREPARATION METHODS THEREOF, AND KITS, DEVICES AND METHODS FOR THE ANALYSIS, DETECTION OR MODULATION OF NUCLEIC ACIDS USING THE SAME” (PANAGENE INC., priority 2006, published 2010).

Data set [1] relates to PCR product of HBV mutant type. Briefly: PNA microarray hybridization with biotinylated PCR product, streptavidine-Cy5 fluorescence (perfect match). The class given is binding, hepatitis B virus (HBV). As for the experimental part:
The purified oligomer was diluted at a concentration of […], and spotted on a slide glass functionalized with epoxy group (Panagene, Korea) in pin mode, and the slide was allowed to stand for 4 hours at room temperature while maintaining 75% humidity. Then, it was immersed into DMF, and washed by ultrasonication for 15 minutes. It was immersed into DMF containing 0.1 M succinic anhydride and reacted at 40° C. for 2 hours. And the reaction mixture was washed by ultrasonication with DMF and deionized water, sequentially, for 15 minutes per time. Then, the slide was treated with 100 mM Tris-HCl buffer containing 0.1 M ethanolamine for 2 hours to inactivate the residual epoxy groups on the surface of the slide glass. The slide glass was washed by ultrasonication with deionized water, twice for 15 minutes per time, treated with boiling water for 5 minutes, washed with deionized water for 5 minutes, and dried. Then, a PNA microarray was ready for hybridization after attaching a silicon rubber sealing mat having holes, which can contain 100 μl of hybridization solution, to the slide glass.
To a hybridization solution of 100 μl was added 5 μl of the PCR product of HBV mutant type having biotin attached thereto, and streptavidine-Cy5 was added thereto to cause fluorescent reaction. […] The PNA microarray was scanned by a fluorescence scanner. […]

Data set [2] deals with PCR product of HBV wild type. Briefly: PNA microarray hybridization with biotinylated PCR product, streptavidine-Cy5 fluorescence (single mismatch). The class given is binding, hepatitis B virus (HBV). Conditions: hybridization at 40° C. for 2 hours, fluorescence scanner, SEQ ID Nos. 2 to 4 compared to SEQ ID No. 1.

“k(k)k-OO-GAGCCATGAGAAA (all peptide nucleic acid (PNA); N-terminal lysines and OO linker attached) [SEQ ID No. 1, PNA oligomer, 13 mer consisting of natural bases to detect mutation]”: the perfect match signal result in data set [1] (PCR product of HBV mutant type, hybridization at 40° C. for 2 hours, fluorescence scanner, FIGS. 2 and 3) is given as “intensive perfect match signal”. Also, in data set [1] (perfect match signal for HBV mutant type versus single mismatch signal for HBV wild type), the “discriminability of HBV mutant type against wild type” value is “cannot discriminate HBV mutant type against wild type”. In addition, the single mismatch signal result in data set [2] is “intensive single mismatch signal”.
